Experimental data: US20190014806A1, “Composition to Reduce the Negative Effects of Alcohol Consumption” (priority 2017, published 2019)

Test system: drosophila
Assay: alcohol sedation model: recovery of drosophila after acute alcohol exposure
Format: in vivo
Settings: FIG. 1; acute alcohol exposure over time; agents in fly food at least two days before exposure
Procedure: This invention used a modified version of the alcohol sedation model disclosed by Sandhu et al to evaluate the effects of acute alcohol exposure in drosophila. For example, in one of the models, for at least two days prior to alcohol exposure, drosophila consumed standard fly food combined with placebo or investigational agents. The drosophila were then moved to empty, foam stopper-covered vials and allowed to acclimate before the foam stoppers were injected with 1 ml 100% ethanol. At different time intervals, it was noted how many drosophila in each vial lost consciousness. […] The average recovery score was calculated by averaging the recovery scores of individual drosophila. Increasing the extent of alcohol exposure led to greater alcohol toxicity, including substantial death. In the following examples, a modified version of the alcohol sedation model employed by Sandhu et al. (“An Inexpensive, Scalable Behavioral Assay for Measuring Ethanol Sedation Sensitivity and Rapid Tolerance in Drosophila,” J Vis Exp. Author manuscript; available in PMC 2016 Apr. 15) to evaluate the effects of acute alcohol exposure was used. For at least two days prior to alcohol exposure, flies consumed standard fly food combined with placebo or investigational agents. […] The average recovery score is calculated by averaging the recovery scores of individual flies. […]

Question: `NCCS(=O)(=O)O` [taurine] was tested. Which “recovery from consumption of alcohol in comparison with no taurine added (placebo)” value did it give?
Answer: Its value is “accelerates recovery from consumption of alcohol”.
